Measurements as given in patent US10844077B2, “Thiazolyl-containing compounds for treating proliferative diseases” (Dana-Farber Cancer Institute, Inc., priority 2014, dated 2020).
Read-outs that look alike come from different tables or passages of the source.

How the values were obtained:
Type in all cases: binding
broad panel of kinases [1] = biological target: broad panel of kinases (Homo sapiens, UniProt P06239); settings: LCK; 1 μM
broad panel of kinases [2] = biological target: broad panel of kinases (Homo sapiens, UniProt O14578); settings: CIT; 1 μM
broad panel of kinases [3] = biological target: broad panel of kinases (Homo sapiens, UniProt Q6XUX3); settings: RIPK5; 1 μM
broad panel of kinases [4] = biological target: broad panel of kinases (Homo sapiens, UniProt P78362); settings: SRPK2; 1 μM
broad panel of kinases [5] = biological target: broad panel of kinases (Homo sapiens, UniProt O75716); settings: STK16; 1 μM
broad panel of kinases [6] = biological target: broad panel of kinases (Homo sapiens, UniProt Q8TDX7); settings: NEK7; 1 μM
broad panel of kinases [7] = biological target: broad panel of kinases (Homo sapiens, UniProt P54646); settings: AMPK-alpha2; 1 μM
broad panel of kinases [8] = biological target: broad panel of kinases (Homo sapiens, UniProt Q9H2X6); settings: HIPK2; 1 μM
broad panel of kinases [9] = biological target: broad panel of kinases (Homo sapiens, UniProt Q9HCP0); settings: CSNK1G1; 1 μM
broad panel of kinases [10] = biological target: broad panel of kinases (Homo sapiens, UniProt P21860); settings: ERBB3; 1 μM
broad panel of kinases [11] = biological target: broad panel of kinases (Homo sapiens, UniProt Q99759); settings: MAP3K3; 1 μM
broad panel of kinases [12] = biological target: broad panel of kinases (Homo sapiens, UniProt P49674); settings: CSNK1E; 1 μM
broad panel of kinases [13] = biological target: broad panel of kinases (Homo sapiens, UniProt Q9BXA7); settings: TSSK1B; 1 μM
broad panel of kinases [14] = biological target: broad panel of kinases (Homo sapiens, UniProt Q15303); settings: ERBB4; 1 μM
broad panel of kinases [15] = biological target: broad panel of kinases (Homo sapiens, UniProt Q13164); settings: ERK5; 1 μM
broad panel of kinases [16] = biological target: broad panel of kinases (Homo sapiens, UniProt O43683); settings: BUB1; 1 μM
broad panel of kinases [17] = biological target: broad panel of kinases (Homo sapiens, UniProt Q86Z02); settings: HIPK1; 1 μM
broad panel of kinases [18] = biological target: broad panel of kinases (Homo sapiens, UniProt Q8N752); settings: CSNK1A1L; 1 μM
broad panel of kinases [19] = biological target: broad panel of kinases (Homo sapiens, UniProt Q05397); settings: FAK; 1 μM
broad panel of kinases [20] = biological target: broad panel of kinases (Homo sapiens, UniProt P00533, L858R); settings: EGFR(L858R); 1 μM
broad panel of kinases [21] = biological target: broad panel of kinases (Homo sapiens, UniProt P54760); settings: EPHB4; 1 μM
broad panel of kinases [22] = biological target: broad panel of kinases (Homo sapiens, UniProt Q9BRS2); settings: RIOK1; 1 μM
broad panel of kinases [23] = biological target: broad panel of kinases (Homo sapiens, UniProt Q15569); settings: TESK1; 1 μM
broad panel of kinases [24] = biological target: broad panel of kinases (Homo sapiens, UniProt Q9UQB9); settings: AURKC; 1 μM
broad panel of kinases [25] = biological target: broad panel of kinases (Homo sapiens, UniProt Q13177); settings: PAK2; 1 μM
broad panel of kinases [26] = biological target: broad panel of kinases (Homo sapiens, UniProt P54753); settings: EPHB3; 1 μM
broad panel of kinases [27] = biological target: broad panel of kinases (Homo sapiens, UniProt P00533); settings: EGFR; 1 μM
broad panel of kinases [28] = biological target: broad panel of kinases (Homo sapiens, UniProt Q9BYT3); settings: STK33; 1 μM
broad panel of kinases [29] = biological target: broad panel of kinases (Homo sapiens, UniProt P11802); settings: 1 μM
broad panel of kinases [30] = biological target: broad panel of kinases (Homo sapiens, UniProt P19525); settings: PRKR; 1 μM
broad panel of kinases [31] = biological target: broad panel of kinases (Homo sapiens, UniProt Q00536); settings: PCTK1; 1 μM
broad panel of kinases [32] = biological target: broad panel of kinases (Homo sapiens, UniProt P22455); settings: FGFR4; 1 μM
broad panel of kinases [33] = biological target: broad panel of kinases (Homo sapiens, UniProt P07947); settings: YES; 1 μM
broad panel of kinases [34] = biological target: broad panel of kinases (Homo sapiens, UniProt O14965); settings: AURKA; 1 μM
broad panel of kinases [35] = biological target: broad panel of kinases (Homo sapiens, UniProt P27448); settings: MARK3; 1 μM
broad panel of kinases [36] = biological target: broad panel of kinases (Homo sapiens, UniProt O76039); settings: CDKL5; 1 μM
broad panel of kinases [37] = biological target: broad panel of kinases (Homo sapiens, UniProt P35590); settings: TIE1; 1 μM

Sequence of broad panel of kinases (Homo sapiens, UniProt P11802) (P11802 2-303 limits assumed): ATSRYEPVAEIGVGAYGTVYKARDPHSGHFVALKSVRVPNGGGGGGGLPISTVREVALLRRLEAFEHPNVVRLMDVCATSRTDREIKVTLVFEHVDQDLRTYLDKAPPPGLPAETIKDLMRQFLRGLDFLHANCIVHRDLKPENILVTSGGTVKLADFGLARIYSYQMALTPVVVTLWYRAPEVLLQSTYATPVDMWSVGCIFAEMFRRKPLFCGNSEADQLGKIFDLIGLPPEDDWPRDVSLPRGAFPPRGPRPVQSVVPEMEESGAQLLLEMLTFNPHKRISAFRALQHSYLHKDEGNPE
Sequence of broad panel of kinases (Homo sapiens, UniProt P19525) (P19525 2-551 limits assumed): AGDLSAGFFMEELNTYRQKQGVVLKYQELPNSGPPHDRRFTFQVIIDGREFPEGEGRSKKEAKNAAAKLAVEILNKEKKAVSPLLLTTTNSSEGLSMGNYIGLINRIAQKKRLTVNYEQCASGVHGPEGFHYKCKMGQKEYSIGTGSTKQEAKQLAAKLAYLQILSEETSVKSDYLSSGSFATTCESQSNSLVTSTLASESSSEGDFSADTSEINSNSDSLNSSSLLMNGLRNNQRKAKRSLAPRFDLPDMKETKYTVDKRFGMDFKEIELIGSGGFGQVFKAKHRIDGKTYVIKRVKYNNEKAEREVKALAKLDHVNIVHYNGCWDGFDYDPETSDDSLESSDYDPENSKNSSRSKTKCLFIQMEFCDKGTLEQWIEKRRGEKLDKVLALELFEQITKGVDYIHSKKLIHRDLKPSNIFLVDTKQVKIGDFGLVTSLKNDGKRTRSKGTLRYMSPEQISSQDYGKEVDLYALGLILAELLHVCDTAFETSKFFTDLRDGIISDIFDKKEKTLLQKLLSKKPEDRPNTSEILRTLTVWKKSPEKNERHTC
Sequence of broad panel of kinases (Homo sapiens, UniProt Q13164) (Q13164 2-816 limits assumed): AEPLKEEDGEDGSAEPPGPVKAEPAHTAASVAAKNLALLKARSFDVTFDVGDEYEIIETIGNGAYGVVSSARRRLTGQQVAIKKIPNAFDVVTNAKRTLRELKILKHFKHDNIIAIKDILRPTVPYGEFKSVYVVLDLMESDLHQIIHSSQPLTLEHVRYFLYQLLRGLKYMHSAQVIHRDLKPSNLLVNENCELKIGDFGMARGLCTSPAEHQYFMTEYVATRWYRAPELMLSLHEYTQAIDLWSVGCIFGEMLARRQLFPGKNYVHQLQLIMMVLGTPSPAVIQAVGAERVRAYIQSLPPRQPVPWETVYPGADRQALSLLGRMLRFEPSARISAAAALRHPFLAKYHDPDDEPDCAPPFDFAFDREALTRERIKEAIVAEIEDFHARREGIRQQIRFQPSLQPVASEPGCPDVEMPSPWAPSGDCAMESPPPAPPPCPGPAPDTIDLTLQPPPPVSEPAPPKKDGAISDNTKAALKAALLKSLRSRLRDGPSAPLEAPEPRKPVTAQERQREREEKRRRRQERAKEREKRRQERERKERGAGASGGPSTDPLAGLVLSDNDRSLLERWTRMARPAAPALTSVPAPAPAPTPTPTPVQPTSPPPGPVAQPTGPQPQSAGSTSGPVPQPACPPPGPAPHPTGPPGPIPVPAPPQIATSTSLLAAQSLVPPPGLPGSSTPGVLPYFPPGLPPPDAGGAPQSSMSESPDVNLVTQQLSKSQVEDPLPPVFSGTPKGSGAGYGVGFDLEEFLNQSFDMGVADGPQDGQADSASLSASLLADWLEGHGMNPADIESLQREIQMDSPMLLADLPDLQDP
Sequence of broad panel of kinases (Homo sapiens, UniProt P06239) (P06239 2-509 limits assumed): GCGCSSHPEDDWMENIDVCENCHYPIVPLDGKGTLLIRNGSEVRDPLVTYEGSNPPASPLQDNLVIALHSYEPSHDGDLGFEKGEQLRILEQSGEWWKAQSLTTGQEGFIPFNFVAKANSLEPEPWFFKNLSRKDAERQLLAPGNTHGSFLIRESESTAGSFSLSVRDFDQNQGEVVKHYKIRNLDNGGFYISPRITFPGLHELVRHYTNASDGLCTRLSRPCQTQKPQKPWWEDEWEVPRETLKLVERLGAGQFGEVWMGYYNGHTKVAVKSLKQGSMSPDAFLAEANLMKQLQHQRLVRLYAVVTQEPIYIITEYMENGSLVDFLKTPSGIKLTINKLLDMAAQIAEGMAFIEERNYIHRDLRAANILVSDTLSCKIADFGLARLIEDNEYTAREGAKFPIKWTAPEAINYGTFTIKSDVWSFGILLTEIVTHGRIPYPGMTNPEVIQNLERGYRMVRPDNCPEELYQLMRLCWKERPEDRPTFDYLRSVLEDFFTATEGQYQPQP
Sequence of broad panel of kinases (Homo sapiens, UniProt Q05397) (Q05397 2-1052 limits assumed): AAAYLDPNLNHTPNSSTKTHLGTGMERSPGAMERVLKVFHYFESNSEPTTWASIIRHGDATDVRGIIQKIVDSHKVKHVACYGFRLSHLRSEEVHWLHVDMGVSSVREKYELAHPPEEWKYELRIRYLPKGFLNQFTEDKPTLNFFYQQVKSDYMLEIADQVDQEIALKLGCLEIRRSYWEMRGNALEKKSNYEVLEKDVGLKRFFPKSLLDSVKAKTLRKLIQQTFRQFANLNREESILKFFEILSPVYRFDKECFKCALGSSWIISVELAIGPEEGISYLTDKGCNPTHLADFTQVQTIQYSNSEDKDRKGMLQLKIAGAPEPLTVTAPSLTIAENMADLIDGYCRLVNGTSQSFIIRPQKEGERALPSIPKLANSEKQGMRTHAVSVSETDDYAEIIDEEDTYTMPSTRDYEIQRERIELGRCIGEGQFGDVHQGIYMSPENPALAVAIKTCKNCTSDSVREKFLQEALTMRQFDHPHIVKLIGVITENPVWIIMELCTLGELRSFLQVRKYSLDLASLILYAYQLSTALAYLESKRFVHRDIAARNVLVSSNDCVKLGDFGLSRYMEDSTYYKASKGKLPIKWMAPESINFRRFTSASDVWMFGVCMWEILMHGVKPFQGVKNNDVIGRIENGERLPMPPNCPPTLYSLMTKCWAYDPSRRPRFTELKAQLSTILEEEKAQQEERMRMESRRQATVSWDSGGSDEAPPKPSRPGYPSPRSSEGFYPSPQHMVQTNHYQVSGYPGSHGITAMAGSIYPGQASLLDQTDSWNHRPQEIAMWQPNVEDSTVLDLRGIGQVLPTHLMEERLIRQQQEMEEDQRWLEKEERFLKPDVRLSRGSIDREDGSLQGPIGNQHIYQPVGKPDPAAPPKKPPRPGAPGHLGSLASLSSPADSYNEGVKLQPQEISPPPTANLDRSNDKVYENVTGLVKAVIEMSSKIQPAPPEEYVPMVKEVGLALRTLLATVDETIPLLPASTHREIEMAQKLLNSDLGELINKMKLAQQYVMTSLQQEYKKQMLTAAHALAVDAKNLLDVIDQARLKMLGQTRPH
Sequence of broad panel of kinases (Homo sapiens, UniProt O75716) (O75716 2-305 limits assumed): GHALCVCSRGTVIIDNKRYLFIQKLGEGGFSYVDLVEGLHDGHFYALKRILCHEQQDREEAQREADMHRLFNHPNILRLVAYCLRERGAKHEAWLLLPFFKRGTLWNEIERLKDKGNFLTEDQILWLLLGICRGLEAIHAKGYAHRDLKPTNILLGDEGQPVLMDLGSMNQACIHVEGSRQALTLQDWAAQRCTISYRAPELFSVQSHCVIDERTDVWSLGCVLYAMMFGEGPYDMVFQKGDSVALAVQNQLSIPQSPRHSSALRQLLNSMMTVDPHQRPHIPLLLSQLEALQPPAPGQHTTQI
Sequence of broad panel of kinases (Homo sapiens, UniProt P54753) (P54753 34-998 limits assumed): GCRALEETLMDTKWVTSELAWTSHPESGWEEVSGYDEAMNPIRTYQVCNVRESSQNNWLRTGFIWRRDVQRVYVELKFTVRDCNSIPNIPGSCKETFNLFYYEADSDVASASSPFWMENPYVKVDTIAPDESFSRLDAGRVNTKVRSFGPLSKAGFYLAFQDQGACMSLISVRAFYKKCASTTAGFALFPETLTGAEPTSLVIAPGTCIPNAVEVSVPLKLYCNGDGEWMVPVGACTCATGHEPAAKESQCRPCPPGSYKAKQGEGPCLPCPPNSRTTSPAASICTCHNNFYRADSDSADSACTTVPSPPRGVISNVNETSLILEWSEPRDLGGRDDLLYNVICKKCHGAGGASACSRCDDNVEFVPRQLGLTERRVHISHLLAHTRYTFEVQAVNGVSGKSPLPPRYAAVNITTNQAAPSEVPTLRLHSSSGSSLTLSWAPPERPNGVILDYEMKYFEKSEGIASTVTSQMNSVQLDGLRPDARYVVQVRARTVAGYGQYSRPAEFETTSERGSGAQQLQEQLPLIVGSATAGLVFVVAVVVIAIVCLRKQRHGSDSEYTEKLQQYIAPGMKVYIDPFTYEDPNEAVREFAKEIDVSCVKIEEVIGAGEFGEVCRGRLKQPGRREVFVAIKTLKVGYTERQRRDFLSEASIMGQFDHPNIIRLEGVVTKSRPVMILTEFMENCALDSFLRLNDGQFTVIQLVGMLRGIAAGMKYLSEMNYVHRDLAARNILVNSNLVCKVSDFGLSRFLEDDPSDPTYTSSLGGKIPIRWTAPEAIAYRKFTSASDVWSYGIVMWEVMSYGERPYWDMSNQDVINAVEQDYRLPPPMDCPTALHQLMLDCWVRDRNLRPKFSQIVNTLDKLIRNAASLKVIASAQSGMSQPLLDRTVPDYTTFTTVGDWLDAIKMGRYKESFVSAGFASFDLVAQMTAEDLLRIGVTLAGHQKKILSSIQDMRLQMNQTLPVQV
Sequence of broad panel of kinases (Homo sapiens, UniProt P07947) (P07947 2-543 limits assumed): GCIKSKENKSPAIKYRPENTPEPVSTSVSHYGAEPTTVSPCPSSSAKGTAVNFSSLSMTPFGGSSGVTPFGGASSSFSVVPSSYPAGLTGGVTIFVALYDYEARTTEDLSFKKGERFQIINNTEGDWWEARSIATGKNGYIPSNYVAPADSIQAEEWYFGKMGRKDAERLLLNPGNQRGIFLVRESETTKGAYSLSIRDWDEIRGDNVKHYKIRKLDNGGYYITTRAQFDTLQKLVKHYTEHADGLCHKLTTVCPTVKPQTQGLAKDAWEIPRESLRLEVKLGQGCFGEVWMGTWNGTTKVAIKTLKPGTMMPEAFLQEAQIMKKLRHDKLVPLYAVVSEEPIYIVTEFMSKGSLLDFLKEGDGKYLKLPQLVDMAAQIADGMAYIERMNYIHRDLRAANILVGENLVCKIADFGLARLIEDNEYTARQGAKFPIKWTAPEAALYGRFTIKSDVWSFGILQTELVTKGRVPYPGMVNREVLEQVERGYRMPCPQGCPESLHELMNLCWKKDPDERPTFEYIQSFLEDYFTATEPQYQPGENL

| SMILES | percent of control binding remaining (lower = stronger binding) (broad panel of kinases [2]) | percent of control binding remaining (lower = stronger binding) (broad panel of kinases [3]) | percent of control binding remaining (lower = stronger binding) (broad panel of kinases [4]) | percent of control binding remaining (lower = stronger binding) (broad panel of kinases [5]) | percent of control binding remaining (lower = stronger binding) (broad panel of kinases [6]) | percent of control binding remaining (lower = stronger binding) (broad panel of kinases [7]) | percent of control binding remaining (lower = stronger binding) (broad panel of kinases [8]) | percent of control binding remaining (lower = stronger binding) (broad panel of kinases [9]) | percent of control binding remaining (lower = stronger binding) (broad panel of kinases [10]) | percent of control binding remaining (lower = stronger binding) (broad panel of kinases [11]) | percent of control binding remaining (lower = stronger binding) (broad panel of kinases [12]) | percent of control binding remaining (lower = stronger binding) (broad panel of kinases [13]) | percent of control binding remaining (lower = stronger binding) (broad panel of kinases [14]) | percent of control binding remaining (lower = stronger binding) (broad panel of kinases [15]) | percent of control binding remaining (lower = stronger binding) (broad panel of kinases [16]) | percent of control binding remaining (lower = stronger binding) (broad panel of kinases [17]) | percent of control binding remaining (lower = stronger binding) (broad panel of kinases [18]) | percent of control binding remaining (lower = stronger binding) (broad panel of kinases [19]) | percent of control binding remaining (lower = stronger binding) (broad panel of kinases [20]) | percent of control binding remaining (lower = stronger binding) (broad panel of kinases [21]) | also measured |
| --- | --- | --- | --- | --- | --- | --- | --- | --- | --- | --- | --- | --- | --- | --- | --- | --- | --- | --- | --- | --- | --- |
| C=CC(=O)N1CC[C@H](Nc2nccc(Nc3ncc(C(=O)Nc4c(C)cccc4C)s3)n2)C1 [Example I-3] | 88% | 86% | 64% | 89% | 98% | 78% | 100% | 100% | 0.8% | 94% | 96% | 100% | 0.2% | 90% | 68% | 95% | 95% | 100% | 0.75% | 0% | % change compared to control (broad panel of kinases [1]): 0.55%; percent of control binding remaining (lower = stronger binding) (broad panel of kinases [22]): 82%; percent of control binding remaining (lower = stronger binding) (broad panel of kinases [23]): 88%; percent of control binding remaining (lower = stronger binding) (broad panel of kinases [24]): 71%; percent of control binding remaining (lower = stronger binding) (broad panel of kinases [25]): 93%; percent of control binding remaining (lower = stronger binding) (broad panel of kinases [26]): 0%; percent of control binding remaining (lower = stronger binding) (broad panel of kinases [27]): 2.6%; percent of control binding remaining (lower = stronger binding) (broad panel of kinases [28]): 96%; percent of control binding remaining (lower = stronger binding) (broad panel of kinases [29]; CDK4-cyclinD1): 99%; percent of control binding remaining (lower = stronger binding) (broad panel of kinases [29]; CDK4-cyclinD3): 95%; percent of control binding remaining (lower = stronger binding) (broad panel of kinases [30]): 69%; percent of control binding remaining (lower = stronger binding) (broad panel of kinases [31]): 100%; percent of control binding remaining (lower = stronger binding) (broad panel of kinases [32]): 100%; percent of control binding remaining (lower = stronger binding) (broad panel of kinases [33]): 0%; percent of control binding remaining (lower = stronger binding) (broad panel of kinases [34]): 80%; percent of control binding remaining (lower = stronger binding) (broad panel of kinases [35]): 57%; percent of control binding remaining (lower = stronger binding) (broad panel of kinases [36]): 100%; percent of control binding remaining (lower = stronger binding) (broad panel of kinases [37]): 100% |
| C=CC(=O)N1CC[C@H](Nc2nc(CN3CCOCC3)cc(Nc3ncc(C(=O)Nc4c(C)cccc4C)s3)n2)C1 [Example I-2] | 100% | 100% | 92% | 99% | 100% | 92% | 97% | 100% | 0.1% | 79% | 84% | 73% | 0.6% | 91% | 85% | 93% | 100% | 100% | 0% | 0% | percent of control binding remaining (lower = stronger binding) (broad panel of kinases [1]): 0.65%; percent of control binding remaining (lower = stronger binding) (broad panel of kinases [22]): 90%; percent of control binding remaining (lower = stronger binding) (broad panel of kinases [23]): 60%; percent of control binding remaining (lower = stronger binding) (broad panel of kinases [24]): 90%; percent of control binding remaining (lower = stronger binding) (broad panel of kinases [25]): 92%; percent of control binding remaining (lower = stronger binding) (broad panel of kinases [26]): 0%; percent of control binding remaining (lower = stronger binding) (broad panel of kinases [27]): 5.6%; percent of control binding remaining (lower = stronger binding) (broad panel of kinases [28]): 86%; percent of control binding remaining (lower = stronger binding) (broad panel of kinases [29]; CDK4-cyclinD1): 96%; percent of control binding remaining (lower = stronger binding) (broad panel of kinases [29]; CDK4-cyclinD3): 94%; percent of control binding remaining (lower = stronger binding) (broad panel of kinases [30]): 89%; percent of control binding remaining (lower = stronger binding) (broad panel of kinases [31]): 97%; percent of control binding remaining (lower = stronger binding) (broad panel of kinases [32]): 100%; percent of control binding remaining (lower = stronger binding) (broad panel of kinases [33]): 0%; percent of control binding remaining (lower = stronger binding) (broad panel of kinases [34]): 73%; percent of control binding remaining (lower = stronger binding) (broad panel of kinases [35]): 94%; percent of control binding remaining (lower = stronger binding) (broad panel of kinases [36]): 100%; percent of control binding remaining (lower = stronger binding) (broad panel of kinases [37]): 100% |
